Assay results reported in patent US12527739B2 (Alcon Inc., priority 2022, dated 2026).
Read-outs that look alike come from different tables or passages of the source. One block for each molecule: values may come before it.

What was measured:
myopia progression = details: higher doses; cited from earlier work
M1 muscarinic receptor = target: T1, M1 muscarinic receptor (Homo sapiens, UniProt P11229); experiment: Muscarinic receptor radioligand displacement binding, M1
T1 sequence (P11229 1-460): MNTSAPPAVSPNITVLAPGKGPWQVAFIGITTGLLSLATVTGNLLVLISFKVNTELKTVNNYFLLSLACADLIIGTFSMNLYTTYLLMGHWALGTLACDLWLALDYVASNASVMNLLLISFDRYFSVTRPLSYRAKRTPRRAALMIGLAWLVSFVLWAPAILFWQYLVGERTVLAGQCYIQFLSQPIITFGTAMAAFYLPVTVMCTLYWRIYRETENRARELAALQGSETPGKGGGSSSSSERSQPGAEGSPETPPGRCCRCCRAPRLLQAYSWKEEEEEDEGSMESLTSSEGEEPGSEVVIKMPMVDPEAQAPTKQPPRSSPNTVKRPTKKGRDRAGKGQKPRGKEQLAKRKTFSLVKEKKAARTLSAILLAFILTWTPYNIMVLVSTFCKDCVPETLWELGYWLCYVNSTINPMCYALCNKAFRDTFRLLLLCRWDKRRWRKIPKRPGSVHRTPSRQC

M2 muscarinic receptor = target: T2, M2 muscarinic receptor (Homo sapiens, UniProt P08172); experiment: Muscarinic receptor radioligand displacement binding, M2
T2 sequence (P08172 1-466): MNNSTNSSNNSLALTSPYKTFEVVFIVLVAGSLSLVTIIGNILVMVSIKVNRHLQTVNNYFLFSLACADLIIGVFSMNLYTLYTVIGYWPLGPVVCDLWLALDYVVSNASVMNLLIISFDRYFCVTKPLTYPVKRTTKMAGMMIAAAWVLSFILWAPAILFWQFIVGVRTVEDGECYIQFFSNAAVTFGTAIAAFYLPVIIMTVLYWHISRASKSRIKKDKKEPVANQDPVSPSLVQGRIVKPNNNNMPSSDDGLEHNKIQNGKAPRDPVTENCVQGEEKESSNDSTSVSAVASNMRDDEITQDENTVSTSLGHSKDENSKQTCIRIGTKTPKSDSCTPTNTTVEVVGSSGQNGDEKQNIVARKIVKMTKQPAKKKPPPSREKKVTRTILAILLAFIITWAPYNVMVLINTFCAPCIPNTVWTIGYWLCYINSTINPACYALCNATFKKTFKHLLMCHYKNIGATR

M3 muscarinic receptor = M3 muscarinic receptor (Homo sapiens, UniProt P20309); experiment: Muscarinic receptor radioligand displacement binding, M3
M4 muscarinic receptor = target: T3, M4 muscarinic receptor (Homo sapiens, UniProt P08173); experiment: Muscarinic receptor radioligand displacement binding, M4
T3 sequence (P08173 1-479): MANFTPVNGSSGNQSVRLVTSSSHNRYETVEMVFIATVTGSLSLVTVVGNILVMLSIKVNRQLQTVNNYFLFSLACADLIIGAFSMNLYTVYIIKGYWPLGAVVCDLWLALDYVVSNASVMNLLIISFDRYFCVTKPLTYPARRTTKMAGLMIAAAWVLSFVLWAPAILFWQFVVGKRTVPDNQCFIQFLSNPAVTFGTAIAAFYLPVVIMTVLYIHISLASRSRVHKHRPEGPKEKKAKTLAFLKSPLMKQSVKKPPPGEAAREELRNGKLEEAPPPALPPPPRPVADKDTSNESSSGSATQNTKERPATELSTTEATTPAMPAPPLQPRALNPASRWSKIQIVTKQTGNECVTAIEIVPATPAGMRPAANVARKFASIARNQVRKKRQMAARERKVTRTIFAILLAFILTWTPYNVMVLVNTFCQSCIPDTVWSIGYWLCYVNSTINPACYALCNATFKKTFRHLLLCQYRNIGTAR

M5 muscarinic receptor = target: T4, M5 muscarinic receptor (Homo sapiens, UniProt P08912); experiment: Muscarinic receptor radioligand displacement binding, M5
T4 sequence (P08912 1-532): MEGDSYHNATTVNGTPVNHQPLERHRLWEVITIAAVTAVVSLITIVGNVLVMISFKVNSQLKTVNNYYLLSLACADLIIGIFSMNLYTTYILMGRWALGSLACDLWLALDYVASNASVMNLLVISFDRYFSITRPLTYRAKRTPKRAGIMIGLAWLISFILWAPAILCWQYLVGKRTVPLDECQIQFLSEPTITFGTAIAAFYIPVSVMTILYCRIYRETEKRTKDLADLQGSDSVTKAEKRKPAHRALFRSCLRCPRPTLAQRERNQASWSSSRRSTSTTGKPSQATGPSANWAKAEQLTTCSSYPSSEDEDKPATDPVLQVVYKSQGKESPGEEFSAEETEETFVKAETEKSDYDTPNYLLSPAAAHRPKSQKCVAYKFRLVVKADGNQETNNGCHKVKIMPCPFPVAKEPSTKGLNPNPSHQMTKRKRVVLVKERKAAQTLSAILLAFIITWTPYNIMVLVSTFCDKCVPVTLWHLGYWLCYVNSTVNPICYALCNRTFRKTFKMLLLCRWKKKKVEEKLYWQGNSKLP

muscarinic receptors = experiment: Binding selectivity across the muscarinic receptors; details: M1-M5
[1] = test system: form deprivation-induced myopia (FDM); experiment: Form deprivation-induced myopia (FDM) chick model; format: in vivo; details: FIG. 1 Panel A; for efficacy in FDM chick model: intravitreal injection day 2 and day 4, readout day 5; for change in refractive error (goggled eye value minus ungoggled eye value): with respect to 5% v/v ethanol solution
[2] = Methyl atropine in lowered-pH phosphate vehicles with tonicity agents; format: physicochemical
Excerpt: Therefore, lowering the initial pH value of the vehicles was deemed necessary to: i) ensure higher solubility; and ii) reach an ophthalmically-acceptable target pH (5-8). Also, the addition of tonicity agents was needed to reach the acceptable target range of 280-320 mOsm/kg (Table 4 and Table 5).

[3] = pH adjustment of methyl atropine and benzyl atropine solutions, HPLC analysis; format: physicochemical; details: for Actual concentration (HPLC): after pH adjustment; for Initial pH: before pH adjustment
[4] = 5 min, pH 7.4
[5] = Solubility screen in two simple vehicles, pH 7.4; details: for pH of the formulation: pH 7.4
[6] = 0.5% Sodium Chloride in 20 mM Phosphate Buffer, pH 2.71
[7] = 3% Mannitol in 20 mM Phosphate Buffer, pH 4.8
[8] = 3.7% Mannitol in 20 mM Phosphate Buffer, pH 2.82
[9] = […] Sodium Choride in 20 mM Phosphate Buffer, pH 4.8

Chain of M3 muscarinic receptor (P20309 whole entry): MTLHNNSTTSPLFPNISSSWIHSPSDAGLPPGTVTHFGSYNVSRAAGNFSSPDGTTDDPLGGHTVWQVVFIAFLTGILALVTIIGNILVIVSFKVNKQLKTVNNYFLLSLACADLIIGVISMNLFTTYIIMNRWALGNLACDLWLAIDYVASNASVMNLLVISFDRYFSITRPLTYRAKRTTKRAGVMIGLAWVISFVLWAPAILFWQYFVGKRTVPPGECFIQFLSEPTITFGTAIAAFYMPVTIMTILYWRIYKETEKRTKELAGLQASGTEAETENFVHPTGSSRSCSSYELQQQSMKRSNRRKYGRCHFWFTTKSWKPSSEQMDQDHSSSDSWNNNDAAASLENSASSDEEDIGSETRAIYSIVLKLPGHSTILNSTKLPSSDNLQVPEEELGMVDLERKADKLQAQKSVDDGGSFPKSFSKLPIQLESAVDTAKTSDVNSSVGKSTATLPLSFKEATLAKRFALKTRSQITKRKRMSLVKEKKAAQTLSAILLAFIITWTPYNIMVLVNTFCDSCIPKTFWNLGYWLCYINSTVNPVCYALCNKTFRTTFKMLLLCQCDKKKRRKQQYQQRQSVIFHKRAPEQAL

Compound: CN1[C@@H]2CC[C@H]1C[C@@H](OC(=O)C(CO)c1ccccc1)C2 (mixture of isomers) [Atropine, atropine]
- side effects (myopia progression): pupillary dilation and light sensitivity

- Ki (M1 muscarinic receptor): 3.4 nM
- Ki (M2 muscarinic receptor): 7.8 nM
- Ki (M3 muscarinic receptor): 2.4 nM
- Ki (M4 muscarinic receptor): 1.2 nM
- Ki (M5 muscarinic receptor): 2.2 nM
- selectivity of binding to the muscarinic receptors (muscarinic receptors): non-selective binding
- Actual Concentration [2, 6]: 5.38 mg/g
- Final pH [2, 6]: 6.7
- Osmolality [2, 6]: 202.5 mOsm/kg
- Actual Concentration [2, 7]: 5.62 mg/g
- Final pH [2, 7]: 8.8
- Osmolality [2, 7]: 217 mOsm/kg
- Actual Concentration [2, 8]: 5.14 mg/g
- Final pH [2, 8]: 6.8
- Osmolality [2, 8]: 262.5 mOsm/kg
- Actual Concentration [2, 9]: 5.14 mg/g
- Final pH [2, 9]: 8.0
- Osmolality [2, 9]: 182.5 mOsm/kg
- Actual concentration (HPLC) ([3]; 30 mM Phosphate Buffer, pH 7.4): 4.61 mg/g
- Initial pH ([3]; 30 mM Phosphate Buffer, pH 7.4): 8.1
- Actual concentration (HPLC) ([3]; Phosphate Buffered Saline): 4.89 mg/g
- Initial pH ([3]; Phosphate Buffered Saline): 9.3
- Actual Concentration [4]: 1.63 mg/g
- pH of the formulation ([5]; 30 mM Phosphate Buffer): 9.2
- pH of the formulation ([5]; Phosphate Buffered Saline): 9.6
- dissolution in vehicle (in words) ([5]; both vehicles: 30 mM phosphate buffer pH 7.4 and phosphate-buffered saline pH 7.4): did not entirely dissolve
Compound: C[N+]1(C)[C@@H]2CC[C@H]1C[C@@H](OC(=O)C(CO)c1ccccc1)C2 (stereo partly shown) [Methyl Atropine, methyl atropine]
- efficacy in FDM chick model [1]: effective
- change in refractive error (goggled eye value minus ungoggled eye value) [1]: significantly decreased

Compound: CN1C2CCC1CC(OC(=O)C(F)(CO)c1ccccc1)C2 (stereo not shown) [fluoro-atropine]
- efficacy in FDM chick model [1]: effective
- change in refractive error (goggled eye value minus ungoggled eye value) [1]: significantly decreased
